What all share (assay): In vitro competitive activity-based protein profiling (gel-based, FP-Rh or HT-01 probe)
Holding throughout (format): biochemical

The target of one experiment is T1, ABHD6 (Mus musculus, UniProt Q8R2Y0).
T1 construct: Proteomes (mouse brain membrane fraction or cell lysates); from tissue; host or cells: mouse brain membrane fraction (or cell lysates, not specified)
T1 sequence (Q8R2Y0 1-336): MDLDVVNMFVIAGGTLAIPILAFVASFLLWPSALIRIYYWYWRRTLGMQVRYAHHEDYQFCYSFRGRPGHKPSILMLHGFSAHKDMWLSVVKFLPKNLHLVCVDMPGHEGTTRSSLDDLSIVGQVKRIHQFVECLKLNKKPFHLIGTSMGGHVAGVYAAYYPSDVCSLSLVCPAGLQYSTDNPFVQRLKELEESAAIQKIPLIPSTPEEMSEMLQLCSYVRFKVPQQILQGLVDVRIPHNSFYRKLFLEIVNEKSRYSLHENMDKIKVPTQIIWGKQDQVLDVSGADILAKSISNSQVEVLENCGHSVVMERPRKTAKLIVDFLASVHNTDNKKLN
The following applies: for inhibition at 1 µM: 1 μM inhibitor, read-out: % Inhibition at 1 μM, C = ABHD6; for inhibition at 10 µM: 10 μM inhibitor, read-out: % Inhibition at 10 μM, C = ABHD6; for IC50: mouse brain membrane fraction or cell lysates, 30 min preincubation at 37° C., read-out: Mouse (IC50 value, nM) ABHD6. An outline of the steps: (§1)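 Steps: inhibitor dilutions + proteome (1.0 mg/mL), 30 min, 37° C; add FP-Rh or HT-01 (50 μM DMSO stock), 30 min, 37° C; quench in SDS buffer; SDS-PAGE; gel imaging; band densitometry.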

The target of another experiment is T2, FAAH (Mus musculus, UniProt O08914).
T2 construct: Proteomes (mouse brain membrane fraction or cell lysates); from tissue; host or cells: mouse brain membrane fraction (or cell lysates, not specified)
T2 sequence (O08914 1-579): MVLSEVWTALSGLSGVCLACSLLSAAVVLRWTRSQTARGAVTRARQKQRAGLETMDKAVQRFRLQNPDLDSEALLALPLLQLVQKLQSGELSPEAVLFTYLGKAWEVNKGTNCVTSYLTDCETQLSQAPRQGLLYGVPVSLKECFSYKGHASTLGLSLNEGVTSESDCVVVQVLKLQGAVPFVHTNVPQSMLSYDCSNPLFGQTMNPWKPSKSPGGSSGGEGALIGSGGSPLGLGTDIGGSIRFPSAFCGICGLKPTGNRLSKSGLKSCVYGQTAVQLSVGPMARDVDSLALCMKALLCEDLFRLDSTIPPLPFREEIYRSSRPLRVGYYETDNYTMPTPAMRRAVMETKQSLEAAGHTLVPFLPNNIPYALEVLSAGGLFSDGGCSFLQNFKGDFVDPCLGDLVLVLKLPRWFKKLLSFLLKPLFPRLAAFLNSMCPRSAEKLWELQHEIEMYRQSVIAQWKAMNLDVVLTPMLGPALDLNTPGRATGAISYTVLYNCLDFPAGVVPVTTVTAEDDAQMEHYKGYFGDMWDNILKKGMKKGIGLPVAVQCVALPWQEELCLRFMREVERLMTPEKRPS
The following applies: for inhibition at 1 µM: 1 μM inhibitor, read-out: % Inhibition at 1 μM, B = FAAH; for inhibition at 10 µM: 10 μM inhibitor, read-out: % Inhibition at 10 μM, B = FAAH. An outline of the steps:
as §1

Another experiment has as its target T3, MAGL (Mus musculus, UniProt O35678).
T3 construct: Proteomes (mouse brain membrane fraction or cell lysates); from tissue; host or cells: mouse brain membrane fraction (or cell lysates, not specified)
T3 sequence (O35678 1-303): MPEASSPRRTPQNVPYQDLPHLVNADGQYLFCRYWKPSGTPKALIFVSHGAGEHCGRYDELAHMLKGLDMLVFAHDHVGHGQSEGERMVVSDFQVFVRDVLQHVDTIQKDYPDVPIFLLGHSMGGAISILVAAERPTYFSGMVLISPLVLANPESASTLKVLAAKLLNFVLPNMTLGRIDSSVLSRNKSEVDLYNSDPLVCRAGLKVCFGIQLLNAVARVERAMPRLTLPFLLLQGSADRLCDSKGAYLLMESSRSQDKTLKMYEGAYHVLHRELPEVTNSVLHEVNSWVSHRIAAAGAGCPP
The conditions noted are these: for inhibition at 1 µM: 1 μM inhibitor; for inhibition at 10 µM: 10 μM inhibitor. Summed up:
as §1

In another experiment the target is T4, PLA2G7 (Mus musculus, UniProt Q60963).
T4 construct: Proteomes (mouse brain membrane fraction or cell lysates); from tissue; host or cells: mouse brain membrane fraction (or cell lysates, not specified)
T4 sequence (Q60963 22-440): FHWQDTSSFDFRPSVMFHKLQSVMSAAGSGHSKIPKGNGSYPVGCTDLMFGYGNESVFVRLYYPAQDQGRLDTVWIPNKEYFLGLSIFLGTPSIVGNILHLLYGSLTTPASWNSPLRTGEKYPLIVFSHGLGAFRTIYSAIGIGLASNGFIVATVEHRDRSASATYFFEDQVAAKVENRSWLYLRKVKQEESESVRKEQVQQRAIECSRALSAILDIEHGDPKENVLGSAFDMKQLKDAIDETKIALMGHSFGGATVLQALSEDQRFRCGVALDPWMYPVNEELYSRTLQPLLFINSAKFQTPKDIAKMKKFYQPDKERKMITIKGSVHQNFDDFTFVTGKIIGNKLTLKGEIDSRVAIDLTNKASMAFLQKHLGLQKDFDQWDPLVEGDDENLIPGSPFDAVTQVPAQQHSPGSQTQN
The following applies: for inhibition at 1 µM: 1 μM inhibitor, read-out: % Inhibition at 1 μM, D = PLA2G7; for inhibition at 10 µM: 10 μM inhibitor, read-out: % Inhibition at 10 μM, D = PLA2G7. An outline of the steps:
as §1

Where two headings read alike, the source gives them in different places.

The values below come from US10093630B2, “Pyrazole compounds and methods of making and using same” (ABIDE THERAPEUTICS, INC., priority 2014, dated 2018).

Consider `N#Cc1cnn(C(=O)NCc2ccc3ccccc3c2)c1` [Example 45, 4-Cyano-N-(naphthalen-2-ylmethyl)-1H-pyrazole-1-carboxamide], for which the inhibition at 1 µM on ABHD6, on FAAH, at MAGL and at PLA2G7 was below 25% throughout. Further, the inhibition (commonly the share of the control response that was lost under treatment) at 10 µM at ABHD6 is below 25%; on FAAH, above 75%; on MAGL, 25 to 75%; on PLA2G7, below 25%.
On to `N#Cc1cnn(C(=O)N2CCN(C(=O)c3ccccc3)CC2)c1` [Example 176, 1-(4-Benzoylpiperazine-1-carbonyl)-1H-pyrazole-4-carbonitrile], for which the inhibition at 1 µM was below 25% on ABHD6, below 25% on FAAH, above 75% on MAGL and above 75% at PLA2G7. Moreover, the inhibition at 10 µM on ABHD6 is above 75%; on FAAH it was 25 to 75%; at MAGL, above 75%; at PLA2G7, above 75%.
On to `CN(Cc1cccc(-c2ccncc2)c1)C(=O)n1cc(-c2ccccc2)cn1` [Example 219, N-Methyl-4-phenyl-N-(3-(pyridin-4-yl)benzyl)-1H-pyrazole-1-carboxamide], for which the inhibition at 1 µM on ABHD6, at FAAH, at MAGL and on PLA2G7 was above 75% each time. Besides, the inhibition at 10 µM at ABHD6, at FAAH, at MAGL and on PLA2G7 was above 75% in each case. Moreover, the IC50 (in general, the concentration at which inhibition is half-maximal) on ABHD6 is 100 to 1000 nM; at FAAH (mouse brain membrane fraction or cell lysates, 30 min preincubation at 37° C., read-out: Mouse (IC50 value, nM) FAAH) it was below 100 nM; on MAGL (mouse brain membrane fraction or cell lysates, 30 min preincubation at 37° C., read-out: Mouse (IC50 value, nM) MAGL), above 1000 nM; at PLA2G7 (mouse brain membrane fraction or cell lysates, 30 min preincubation at 37° C.) it was below 100 nM.
Consider `Cc1cnn(C(=O)N2CCN(Cc3ccc4ccccc4c3)CC2)c1` [Example 11, (4-Methyl-1H-pyrazol-1-yl)(4-(naphthalen-2-ylmethyl)piperazin-1-yl)methanone], for which the inhibition at 1 µM was above 75% at ABHD6, below 25% on FAAH, above 75% on MAGL and below 25% on PLA2G7. Further, the inhibition at 10 µM at ABHD6 was above 75%; on FAAH, 25 to 75%; at MAGL, above 75%; at PLA2G7 it was above 75%.
Consider `N#Cc1cnn(C(=O)N2CCN(Cc3ccc(C(=O)N4CCCCC4)cc3F)CC2)c1` [Example 284, 1-(4-(2-Fluoro-4-(piperidine-1-carbonyl)benzyl)piperazine-1-carbonyl)-1H-pyrazole-4-carbonitrile], for which the inhibition at 1 µM at ABHD6 (gel-based competitive ABPP), on FAAH (gel-based competitive ABPP), at MAGL (gel-based competitive ABPP) and at PLA2G7 (gel-based competitive ABPP) was above 75% throughout. The inhibition at 10 µM at ABHD6 (gel-based competitive ABPP), at FAAH (gel-based competitive ABPP), at MAGL (gel-based competitive ABPP) and on PLA2G7 (gel-based competitive ABPP) was above 75% throughout.
Regarding `O=C(N1CCN(c2cccc(Cl)c2)CC1)n1cc(C(F)(F)F)cn1` [Example 228, (4-(3-Chlorophenyl)piperazin-1-yl)(4-(trifluoromethyl)-1H-pyrazol-1-yl)methanone], the inhibition at 1 µM at ABHD6, at FAAH, on MAGL and at PLA2G7 was above 75% in each case. Further, the inhibition at 10 µM on ABHD6, on FAAH, on MAGL and on PLA2G7 was above 75% in each case.
For `O=C(N1CCN(c2ccccc2N2CCCC2)CC1)n1cc(C(F)(F)F)cn1` [Example 239, (4-(2-(Pyrrolidin-1-yl)phenyl)piperazin-1-yl)(4-(trifluoromethyl)-1H-pyrazol-1-yl)methanone], the inhibition at 1 µM at ABHD6, on FAAH, on MAGL and on PLA2G7 was above 75% in each case. The inhibition at 10 µM at ABHD6, on FAAH, on MAGL and on PLA2G7 was above 75% throughout.
Regarding `COc1cc(-c2ccccc2)ccc1CN1CCN(C(=O)n2cc(C(F)(F)F)cn2)CC1` [Example 144, (4-((3-Methoxybiphenyl-4-yl)methyl)piperazin-1-yl)(4-(trifluoromethyl)-1H-pyrazol-1-yl)methanone], the inhibition at 1 µM at ABHD6, at FAAH, on MAGL and at PLA2G7 was above 75% in each case. Besides, the inhibition at 10 µM at ABHD6, on FAAH, at MAGL and at PLA2G7 was above 75% throughout.
As for `O=C(N1CCN(Cc2cccnc2)CC1)n1cc(-c2ccccc2)cn1` [Example 60, (4-Phenyl-1H-pyrazol-1-yl)(4-(pyridin-3-ylmethyl)piperazin-1-yl)methanone], the inhibition at 1 µM on ABHD6 and at PLA2G7 was above 75% each time. Further, the inhibition at 10 µM on ABHD6 is above 75%; on FAAH it was above 75%; on MAGL it was 25 to 75%; at PLA2G7 it was above 75%. Also, on ABHD6, the IC50 lay within 100 to 1000 nM.
`CCN(Cc1ccccc1Cl)C(=O)n1cc(Cl)cn1` [Example 130, 4-Chloro-N-(2-chlorobenzyl)-N-ethyl-1H-pyrazole-1-carboxamide]: the inhibition at 1 µM on ABHD6, on FAAH, at MAGL and on PLA2G7 was below 25% throughout.
Regarding `O=C(NCCCCc1ccccc1)n1cccn1` [Example 34, N-(4-Phenylbutyl)-1H-pyrazole-1-carboxamide], the inhibition at 10 µM on ABHD6, on FAAH, at MAGL and at PLA2G7 was below 25% each time.
